Like-named read-outs stand apart in the source and are kept apart here.
Columns and labels:
CAAX farnesyltransferase [1] = target: T1, CAAX farnesyltransferase (Rattus norvegicus, UniProt Q02293+Q04631); assay: In vitro farnesylation of the compound by CAAX farnesyltransferase (substrate test, thin layer chromatography); assay type: biochemical; details: relative to tetrapeptide CVIM, 3.6 μM, 37° C., 30 min; for % farnesylation "B": diastereomer B; for % farnesylation "A": diastereomer A
Experimental: After incubation at 37° C. for 30 min, the reaction was stopped by addition of 2 μl of 250 mM EDTA, and the entire reaction mixture was spotted onto a plastic-backed Silica Gel G thin layer sheet (20×20 cm, Brinkmann Inst.) and placed in a tank containing n-propyl alcohol/ammonium hydroxide/water (6:3:1 v/v/v).

CAAX farnesyltransferase [2] = target: T1, CAAX farnesyltransferase; assay: In vitro inhibition of CAAX farnesyltransferase; assay type: biochemical; parameters: purified to homogeneity from rat brain homogenates; from tissue; host or cells: rat brain; alternatively recombinant enzyme from a baculovirus expression system; details: Table D
Experimental: All compounds were tested for in vitro inhibition of CAAX protein farnesyltransferase. […] Alternatively, recombinant CAAX protein farnesyltransferase was also used in this assay. […] Seventy-two hrs after infection, the cells were harvested and disrupted and the enzyme isolated by chromatography on Q-Sepharose.
After incubation for 30 min at 37° C., the amount of [3H]famesyl group transferred to p21H-ras was measured by precipitation with SDS/trichloroacetic acid, filtration onto nitrocellulose, and scintillation counting.
Structures of the compounds tested are reproduced below. Compound numbers also refer to example numbers above.

[3] = diastereomer A, read-out: EC50 (μM) "A"
[4] = diastereomer B, read-out: EC50 (μM) "B"

T1 sequence (Q02293 whole entry, one chain of several): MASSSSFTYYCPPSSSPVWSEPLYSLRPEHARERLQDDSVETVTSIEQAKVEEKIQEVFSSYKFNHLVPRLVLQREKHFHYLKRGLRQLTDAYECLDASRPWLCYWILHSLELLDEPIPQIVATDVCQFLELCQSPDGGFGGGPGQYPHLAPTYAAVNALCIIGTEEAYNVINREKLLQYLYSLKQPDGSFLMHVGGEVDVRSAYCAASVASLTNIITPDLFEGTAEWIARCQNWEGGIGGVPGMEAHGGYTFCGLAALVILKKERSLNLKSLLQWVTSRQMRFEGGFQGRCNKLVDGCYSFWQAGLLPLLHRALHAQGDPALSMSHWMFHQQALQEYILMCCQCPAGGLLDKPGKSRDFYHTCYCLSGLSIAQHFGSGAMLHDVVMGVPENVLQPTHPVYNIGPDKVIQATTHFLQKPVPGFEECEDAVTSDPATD

CN(C(=O)[C@@H](N)CS)C1N=C(c2ccccc2)c2ccccc2N(CC(=O)N[C@@H](Cc2ccccc2)C(=O)O)C1=O (stereo partly drawn) [compound 34, N-[[3-[(2-amino-3-mercapto-1-oxopropyl)methylamino]-2,3-dihydro-2-oxo-5-phenyl-1H-1,4-benzodiazepin-1-yl]acetyl]-L-phenylalanine]
% farnesylation "B" (CAAX farnesyltransferase [1]): < 1%
EC50 (CAAX farnesyltransferase [2]; [3]): 0.54 µM
EC50 (CAAX farnesyltransferase [2]; [4]): 0.0005 µM

CN(C(=O)[C@@H](N)CS)C1N=C(c2ccccc2)c2ccccc2N(CC(=O)N[C@@H](CO)C(=O)O)C1=O (stereo partly drawn) [compound 30]
% farnesylation "A" (CAAX farnesyltransferase [1]): < 1%
% farnesylation "B" (CAAX farnesyltransferase [1]): < 1%
EC50 (CAAX farnesyltransferase [2]; [3]): 10 µM
EC50 (CAAX farnesyltransferase [2]; [4]): 0.0084 µM

CN(C(=O)C(N)CS)C1N=C(c2ccccc2)c2ccccc2N(Cc2cccc(C#N)c2)C1=O (stereo not drawn) [compound 93, N-[[3-[(2-amino-3-mercapto-1-oxopropyl)methylamino]-2,3-dihydro-2-oxo-5-phenyl-1H-1,4-benzodiazepin-1-yl]methyl]-3-benzonitrile]
EC50 (CAAX farnesyltransferase [2]; [3]): 0.82 µM
EC50 (CAAX farnesyltransferase [2]; [4]): 0.004 µM

CSCC[C@@H](C(=O)O)N(C)C(=O)CN1C(=O)C(N(C)C(=O)[C@@H](N)CS)N=C(c2ccccc2)c2ccccc21 (stereo partly drawn) [compound 64, N-[[3-[(2-amino-3-mercapto-1-oxopropyl)methylamino]-2,3-dihydro-2-oxo-5-phenyl-1H-1,4-benzodiazepin-1-yl]acetyl]-(N-methyl)-L-methionine]
EC50 (CAAX farnesyltransferase [2]; [3]): 0.26 µM
EC50 (CAAX farnesyltransferase [2]; [4]): 0.002 µM

CSCC[C@H](NC(=O)CN1C(=O)C(NC(=O)[C@@H](N)CS)CCc2ccccc21)C(=O)O (stereo partly drawn) [compound 10]
% farnesylation "A" (CAAX farnesyltransferase [1]): 20%
% farnesylation "B" (CAAX farnesyltransferase [1]): < 1%
EC50 (CAAX farnesyltransferase [2]; [3]): 1.6 µM
EC50 (CAAX farnesyltransferase [2]; [4]): 1.4 µM

CCOC(=O)[C@H](CCSC)NC(=O)CN1C(=O)C(N(C)C(=O)[C@@H](N)CS)N=C(c2ccccc2)c2ccccc21 (stereo partly drawn) [compound 39]
EC50 (CAAX farnesyltransferase [2]; [3]): 8 µM
EC50 (CAAX farnesyltransferase [2]; [4]): 0.11 µM

CSCC[C@H](NC(=O)CCN1C(=O)C(N(C)C(=O)[C@@H](N)CS)N=C(c2ccccc2)c2ccccc21)C(=O)O (stereo partly drawn) [compound 48]
EC50 (CAAX farnesyltransferase [2]; [3]): 2.5 µM
EC50 (CAAX farnesyltransferase [2]; [4]): 0.004 µM

CSCC[C@H](NC(=O)CN1C(=O)C(N(C)C(=O)[C@@H](N)CSSC(C)(C)C)N=C(c2ccccc2)c2ccccc21)C(=O)OC(C)(C)C (stereo partly drawn) [compound 118, N-[[3-[(2-amino-3-tert-butylthiomercapto-1-oxopropyl)methylamino]-2,3-dihydro-2-oxo-5-phenyl-1H-1,4-benzodiazepin-1-yl]acetyl]-L-methionine tert-butyl ester]
EC50 (CAAX farnesyltransferase [2]; [4]): 0.9 µM

CN(C(=O)[C@@H](N)CS)C1N=C(c2ccccc2)c2cc(Cl)ccc2N(CC(=O)N[C@@H](Cc2ccccc2)C(=O)O)C1=O (stereo partly drawn) [compound 68]
EC50 (CAAX farnesyltransferase [2]; [3]): 0.14 µM
EC50 (CAAX farnesyltransferase [2]; [4]): 0.0016 µM

CCN[C@@H](CS)C(=O)N(C)C1N=C(c2ccccc2)c2ccccc2N(CC(=O)N[C@@H](CCSC)C(=O)O)C1=O (stereo partly drawn) [compound 42, N-[[3-[(2-ethylamino-3-mercapto-1-oxopropyl)methylamino]-2,3-dihydro-2-oxo-5-phenyl-1H-1,4-benzodiazepin-1-yl]acetyl]-L-methionine]
EC50 (CAAX farnesyltransferase [2]; [3]): 0.58 µM
EC50 (CAAX farnesyltransferase [2]; [4]): 0.018 µM

CCCC[C@H](NC(=O)CN1C(=O)C(N(C)C(=O)[C@@H](N)CS)N=C(c2ccccc2)c2ccccc21)C(=O)O (stereo partly drawn) [compound 62, N-[[3-[(2-amino-3-mercapto-1-oxopropyl)methylamino]-2,3-dihydro-2-oxo-5-phenyl-1H-1,4benzodiazepin-1-yl]acetyl]-L-norleucine]
EC50 (CAAX farnesyltransferase [2]; [3]): 0.72 µM
EC50 (CAAX farnesyltransferase [2]; [4]): 0.0005 µM

CSCC[C@H](NC(=O)CN1C(=O)C(N(C)C(=O)[C@@H](N)CSSC(C)(C)C)C=C(c2ccccc2F)c2cc(Cl)ccc21)C(=O)OC1CCCCC1 (stereo partly drawn) [compound 113, N-[[3-[(2-amino-3-tert-butylthiomercapto-1-oxopropyl)methylamino]-2,3-dihydro-2-oxo-5-(2'-fluorophenyl)-7-chloro-1H-1,4-benzazepin-1-yl]acetyl]-L-methionine cyclohexyl ester]
EC50 (CAAX farnesyltransferase [2]; [3]): > 3 µM
EC50 (CAAX farnesyltransferase [2]; [4]): > 3 µM

CSCC[C@H](NC(=O)CN1C(=O)C(N(C)C(=O)[C@@H](N)CS)N=C(c2ccccc2F)c2cc(Cl)ccc21)C(=O)O (stereo partly drawn) [compound 82, N-[[3-[(2-amino-3-mercapto-1-oxopropyl)methylamino]-2,3-dihydro-2-oxo-5-(2'-fluorophenyl)-7-chloro-1H-1,4-benzodiazepin-1-yl]acetyl]-L-methionine]
EC50 (CAAX farnesyltransferase [2]; [3]): 0.25 µM
EC50 (CAAX farnesyltransferase [2]; [4]): 0.001 µM

CN(C(=O)[C@@H](N)CS)C1N=C(c2ccccc2)c2ccccc2N(CC(=O)N[C@@H](Cc2ccc(O)cc2)C(=O)O)C1=O (stereo partly drawn) [compound 54, N-[[3-[(2-amino-3-mercapto-1-oxopropyl)methylamino]-2,3-dihydro-2-oxo-5-phenyl-1H-1,4-benzodiazepin-1-yl]acetyl]-L-tyrosine]
EC50 (CAAX farnesyltransferase [2]; [3]): 1.5 µM
EC50 (CAAX farnesyltransferase [2]; [4]): 0.004 µM

CSCC[C@H](NC(=O)CN1C(=O)C(N(C)C(=O)[C@@H](N)CS)N=C(c2ccccc2Cl)c2cc(Cl)ccc21)C(=O)O (stereo partly drawn) [compound 81, N-[[3-[(2-amino-3-mercapto-1-oxopropyl)methylamino]-2,3-dihydro-2-oxo-5-(2'-chlorophenyl)-7-chloro-1H-1,4-benzodiazepin-1-yl]acetyl]-L-methionine]
EC50 (CAAX farnesyltransferase [2]; [3]): 0.43 µM
EC50 (CAAX farnesyltransferase [2]; [4]): 0.0002 µM

CSCC[C@H](NC(=O)CN1C(=O)C(N(C)C(=O)[C@@H](N)CS)N=C(c2ccccc2)c2ccccc21)C(=O)OC1CCCCC1 (stereo partly drawn) [compound 41]
EC50 (CAAX farnesyltransferase [2]; [3]): 4.2 µM
EC50 (CAAX farnesyltransferase [2]; [4]): 0.074 µM

CN(C(=O)[C@@H](N)CS)C1N=C(c2ccccc2)c2ccccc2N(CC(=O)NCC(=O)O)C1=O (stereo partly drawn) [compound 53, N-[[3-[(2-amino-3-mercapto-1-oxopropyl)methylamino]-2,3-dihydro-2-oxo-5-phenyl-1H-1,4-benzodiazepin-1-yl]acetyl]-glycine]
EC50 (CAAX farnesyltransferase [2]; [3]): > 3 µM
EC50 (CAAX farnesyltransferase [2]; [4]): 0.0004 µM

CSCC[C@H](NC(=O)CN1C(=O)C(N(C)C(=O)[C@@H](N)CS)C=C(c2ccccc2)c2cc(Cl)ccc21)C(=O)O (stereo partly drawn) [compound 83, N-[[3-[(2-amino-3-mercapto-1-oxopropyl)methylamino]-2,3-dihydro-2-oxo-5-phenyl-7-chloro-1H-1,4-benzazepin-1-yl]acetyl]-L-methionine]
EC50 (CAAX farnesyltransferase [2]; [4]): 0.0007 µM

CSCC[C@H](NC(=O)CN1C(=O)C(N(C)C(=O)[C@@H](N)CS)N=C(c2ccccc2)c2cc(Cl)ccc21)C(=O)O (stereo partly drawn) [compound 67, N-[[3-[(2-amino-3-mercapto-1-oxopropyl)methylamino]-2,3-dihydro-2-oxo-5-phenyl-7-chloro-1H-1,4-benzodiazepin-1-yl]acetyl]-L-methionine]
EC50 (CAAX farnesyltransferase [2]; [3]): 0.31 µM
EC50 (CAAX farnesyltransferase [2]; [4]): 0.0004 µM

CN(CC(=O)O)C(=O)CN1C(=O)C(N(C)C(=O)[C@@H](N)CS)N=C(c2ccccc2)c2ccccc21 (stereo partly drawn) [compound 65, N-[[3-[(2-amino-3-mercapto-1-oxopropyl)methylamino]-2,3-dihydro-2-oxo-5-phenyl-1H-1,4-benzodiazepin-1-yl]acetyl]-(N-methyl)-glycine]
EC50 (CAAX farnesyltransferase [2]; [3]): > 3 µM
EC50 (CAAX farnesyltransferase [2]; [4]): 0.0038 µM

CN(C(=O)[C@@H](N)CS)C1N=C(c2ccccc2)c2ccccc2N(Cc2ccc(-c3ccccc3-c3nnn[nH]3)cc2)C1=O (stereo partly drawn) [compound 98, N-[[3-[(2-amino-3-mercapto-1-oxopropyl)methylamino]-2,3-dihydro-2-oxo-5-phenyl-1H-1,4-benzodiazepin-1-yl]methyl]-4-(2-tetrazolylphenyl) benzene]
EC50 (CAAX farnesyltransferase [2]; [3]): 0.84 µM
EC50 (CAAX farnesyltransferase [2]; [4]): 0.006 µM

CN(C(=O)[C@@H](N)CS)C1N=C(c2ccccc2)c2ccccc2N(CC(=O)N[C@@H](CC2CCCCC2)C(=O)O)C1=O (stereo partly drawn) [compound 57, N-[[3-[(2-amino-3-mercapto-1-oxopropyl)methylamino]-2,3-dihydro-2-oxo-5-phenyl-1H-1,4-benzodiazepin-1-yl]acetyl]-(β-cyclohexyl)-L-alanine]
EC50 (CAAX farnesyltransferase [2]; [3]): 2 µM
EC50 (CAAX farnesyltransferase [2]; [4]): 0.0015 µM

CSCC[C@H](NC(=O)CN1C(=O)C(N(C)C(=O)[C@@H](N)CS)C=C(c2ccccc2F)c2cc(Cl)ccc21)C(=O)O (stereo partly drawn) [compound 80, N-[[3-[(2-amino-3-mercapto-1-oxopropyl)methylamino]-2,3-dihydro-2-oxo-5-(2'-fluorophenyl)-7-chloro-1H-1,4-benzazepin-1-yl]acetyl]-L-methionine]
EC50 (CAAX farnesyltransferase [2]; [3]): 0.0003 µM
EC50 (CAAX farnesyltransferase [2]; [4]): 0.0003 µM

CN(C(=O)C(N)CS)C1N=C(c2ccccc2)c2ccccc2N(Cc2cccc(-c3nnn[nH]3)c2)C1=O (stereo not drawn) [compound 96, N-[[3-[(2-amino-3-mercapto-1-oxopropyl)methylanino]-2,3-dihydro-2-oxo-5-phenyl-1H-1,4benzodiazepin-1-yl]methyl]-3-tetrazolylbenzene]
EC50 (CAAX farnesyltransferase [2]; [3]): 0.23 µM
EC50 (CAAX farnesyltransferase [2]; [4]): 0.0013 µM

CSCC[C@@H](C(=O)O)N(C)C(=O)CN1C(=O)C(NC(=O)[C@@H](N)CS)N=C(c2ccccc2)c2ccccc21 (stereo partly drawn) [compound 63]
EC50 (CAAX farnesyltransferase [2]; [3]): > 10 µM
EC50 (CAAX farnesyltransferase [2]; [4]): 2 µM

CSCC[C@H](NC(=O)CN1C(=O)C(N(C)C(=O)[C@@H](N)CS)C=C(c2ccccc2Cl)c2cc(Cl)ccc21)C(=O)O (stereo partly drawn) [compound 92]
EC50 (CAAX farnesyltransferase [2]; [3]): 0.001 µM
EC50 (CAAX farnesyltransferase [2]; [4]): 0.001 µM

CN(C(=O)[C@@H](N)CS)C1N=C(c2ccccc2)c2ccccc2N(CC(=O)N[C@@H](CS)C(=O)O)C1=O (stereo partly drawn) [compound 44, N-[[3-[(2-Amino-3-mercapto-1-oxopropyl)methylamino]-2,3-dihydro-2-oxo-5phenyl-1H-1,4-benzodiazepin-1-yl]acetyl]-L-cysteine]
EC50 (CAAX farnesyltransferase [2]; [3]): 3 µM
EC50 (CAAX farnesyltransferase [2]; [4]): 0.0045 µM

Source: patent publication US5843941A, “Ras farnesyl transferase inhibitors” (Genentech, Inc., priority 1994, dated 1998)
